According to patent publication US12428400B2 (priority 2020, dated 2025):
Like-named read-outs stand apart in the source and are kept apart here.

System: pathogens of rice blast
Assay type: cell-based
Details: 25° C., 7 days, elongation length of hyphae

Molecule COc1nc2nc3ccccc3n2c(F)c1C(F)(F)F [Example 4, 4-fluoro-2-methoxy-3-(trifluoromethyl)benzo[4,5]imidazo[1,2-a]pyrimidine] has a Control value (test solution 1000 ppm, 1,000 μl on oatmeal culture medium) of 66 and a Control value (test solution 2000 ppm, 1,000 μl on oatmeal culture medium) of 96.
